Data: PubChem BioAssay AID1963838 (Molecular Pharmacology Branch, DTP, NCI, 2024)

Test system: 855422-203-R-J1-PDC complex spheroid viability
Experiment: Anticancer human tumor 855422-203-R-J1-PDC patient-derived bladder carcinoma cell line growth inhibition [POLQ]
Details: for IC50: curve of first compound; for viability, T/C: stronger effect = lower value
Outline: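 Complex spheroid viability model combining PDC tumour cells with endothelial (HUVEC) and MSC stromal cells. Novobiocin, ART-558 or RP6685 were tested singly and in combination with standard and investigational anticancer drugs. Each was titrated in half-log steps from near clinical Cmax, or from 10 microM where Cmax was unknown.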

[1] = second compound 0.0316 µM, first compound 0.0316 µM
[2] = second compound 0.0316 µM, first compound 0.1 µM
[3] = second compound 0.0316 µM, first compound 0.316 µM
[4] = second compound 0.0316 µM, first compound 1 µM
[5] = second compound 0.0316 µM, first compound 3.16 µM
[6] = second compound 0.0316 µM, first compound 10 µM
[7] = second compound 0.1 µM, first compound 0.0316 µM
[8] = second compound 0.1 µM, first compound 0.1 µM
[9] = second compound 0.1 µM, first compound 0.316 µM
[10] = second compound 0.1 µM, first compound 1 µM
[11] = second compound 0.1 µM, first compound 3.16 µM
[12] = second compound 0.1 µM, first compound 10 µM
[13] = second compound 0.316 µM, first compound 0.0316 µM
[14] = second compound 0.316 µM, first compound 0.1 µM
[15] = second compound 0.316 µM, first compound 0.316 µM
[16] = second compound 0.316 µM, first compound 1 µM
[17] = second compound 0.316 µM, first compound 3.16 µM
[18] = second compound 0.316 µM, first compound 10 µM
[19] = second compound 1 µM, first compound 0.0316 µM
[20] = second compound 1 µM, first compound 0.1 µM
[21] = second compound 1 µM, first compound 0.316 µM
[22] = second compound 1 µM, first compound 1 µM
[23] = second compound 1 µM, first compound 3.16 µM
[24] = second compound 1 µM, first compound 10 µM
[25] = second compound 3.16 µM, first compound 0.0316 µM
[26] = second compound 3.16 µM, first compound 0.1 µM
[27] = second compound 3.16 µM, first compound 0.316 µM
[28] = second compound 3.16 µM, first compound 1 µM
[29] = second compound 3.16 µM, first compound 3.16 µM
[30] = second compound 3.16 µM, first compound 10 µM
[31] = second compound 10 µM, first compound 0.0316 µM
[32] = second compound 10 µM, first compound 0.1 µM
[33] = second compound 10 µM, first compound 0.316 µM
[34] = second compound 10 µM, first compound 1 µM
[35] = second compound 10 µM, first compound 3.16 µM
[36] = second compound 10 µM, first compound 10 µM
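Also: spheroids exposed to compounds for seven days before readout.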

## CCc1cc2c(N3CCc4c(cc(Cn5ccnc5)cc4-c4cn(C)nc4C(F)(F)F)C3=O)ccnc2c(OC)n1 + Nc1ccc(C#CCN(C(=O)Cc2ncc(C(F)(F)F)cc2C(F)(F)F)c2ccc(F)cc2)nn1
Second compound 0.0316 µM
  IC50: 9240 nM
Second compound 0.1 µM
  IC50: 9090 nM
Second compound 0.316 µM
  IC50: 6820 nM
Second compound 1 µM
  IC50: 8550 nM
Second compound 3.16 µM
  IC50: 7630 nM
Second compound 10 µM
  IC50: 6770 nM
[1]
  viability, T/C: 107%
[2]
  viability, T/C: 142%
[3]
  viability, T/C: 133%
[4]
  viability, T/C: 93.7%
[5]
  viability, T/C: 87%
[6]
  viability, T/C: 46.4%
[7]
  viability, T/C: 125%
[8]
  viability, T/C: 142%
[9]
  viability, T/C: 130%
[10]
  viability, T/C: 93.1%
[11]
  viability, T/C: 76.3%
[12]
  viability, T/C: 45.8%
[13]
  viability, T/C: 136%
[14]
  viability, T/C: 147%
[15]
  viability, T/C: 133%
[16]
  viability, T/C: 88.1%
[17]
  viability, T/C: 72.6%
[18]
  viability, T/C: 39.4%
[19]
  viability, T/C: 98.1%
[20]
  viability, T/C: 121%
[21]
  viability, T/C: 109%
[22]
  viability, T/C: 115%
[23]
  viability, T/C: 72.2%
[24]
  viability, T/C: 46.5%
[25]
  viability, T/C: 148%
[26]
  viability, T/C: 131%
[27]
  viability, T/C: 125%
[28]
  viability, T/C: 124%
[29]
  viability, T/C: 72.6%
[30]
  viability, T/C: 43.1%
[31]
  viability, T/C: 98.9%
[32]
  viability, T/C: 122%
[33]
  viability, T/C: 112%
[34]
  viability, T/C: 111%
[35]
  viability, T/C: 72.6%
[36]
  viability, T/C: 38.5%

## CCc1c2c(nc3ccc(O)cc13)-c1cc3c(c(=O)n1C2)COC(=O)[C@]3(O)CC + Nc1ccc(C#CCN(C(=O)Cc2ncc(C(F)(F)F)cc2C(F)(F)F)c2ccc(F)cc2)nn1
Second compound 0.0316 µM
  IC50: 7.28 nM
Second compound 0.1 µM
  IC50: 6.82 nM
Second compound 0.316 µM
  IC50: 7.42 nM
Second compound 1 µM
  IC50: 7.43 nM
Second compound 3.16 µM
  IC50: 5.79 nM
Second compound 10 µM
  IC50: 6.31 nM
Second compound 0.0316 µM, first compound 0.00316 µM
  viability, T/C: 96.9%
Second compound 0.0316 µM, first compound 0.01 µM
  viability, T/C: 31.4%
[1]
  viability, T/C: 12.5%
[2]
  viability, T/C: 5.91%
[3]
  viability, T/C: 4.85%
[4]
  viability, T/C: 2.42%
Second compound 0.1 µM, first compound 0.00316 µM
  viability, T/C: 100%
Second compound 0.1 µM, first compound 0.01 µM
  viability, T/C: 24.3%
[7]
  viability, T/C: 10.2%
[8]
  viability, T/C: 7.32%
[9]
  viability, T/C: 4.65%
[10]
  viability, T/C: 2.23%
Second compound 0.316 µM, first compound 0.00316 µM
  viability, T/C: 96.2%
Second compound 0.316 µM, first compound 0.01 µM
  viability, T/C: 33.6%
[13]
  viability, T/C: 11.4%
[14]
  viability, T/C: 6.7%
[15]
  viability, T/C: 4.41%
[16]
  viability, T/C: 2.32%
Second compound 1 µM, first compound 0.00316 µM
  viability, T/C: 94.7%
Second compound 1 µM, first compound 0.01 µM
  viability, T/C: 34.5%
[19]
  viability, T/C: 8.52%
[20]
  viability, T/C: 7.09%
[21]
  viability, T/C: 4.98%
[22]
  viability, T/C: 3.55%
Second compound 3.16 µM, first compound 0.00316 µM
  viability, T/C: 71.9%
Second compound 3.16 µM, first compound 0.01 µM
  viability, T/C: 29.9%
[25]
  viability, T/C: 12.9%
[26]
  viability, T/C: 7.49%
[27]
  viability, T/C: 5.5%
[28]
  viability, T/C: 2.82%
Second compound 10 µM, first compound 0.00316 µM
  viability, T/C: 86.3%
Second compound 10 µM, first compound 0.01 µM
  viability, T/C: 24.2%
[31]
  viability, T/C: 14.3%
[32]
  viability, T/C: 8.16%
[33]
  viability, T/C: 5.98%
[34]
  viability, T/C: 2.43%

## O=c1[nH]cc(F)c(=O)[nH]1 + Nc1ccc(C#CCN(C(=O)Cc2ncc(C(F)(F)F)cc2C(F)(F)F)c2ccc(F)cc2)nn1
Second compound 0.0316 µM
  IC50: 2450 nM
Second compound 0.1 µM
  IC50: 2160 nM
Second compound 0.316 µM
  IC50: 3000 nM
Second compound 1 µM
  IC50: 2420 nM
Second compound 3.16 µM
  IC50: 3060 nM
Second compound 10 µM
  IC50: 2750 nM
[1]
  viability, T/C: 118%
[2]
  viability, T/C: 110%
[3]
  viability, T/C: 160%
[4]
  viability, T/C: 65.3%
[5]
  viability, T/C: 47.4%
[6]
  viability, T/C: 43.9%
[7]
  viability, T/C: 90.8%
[8]
  viability, T/C: 111%
[9]
  viability, T/C: 142%
[10]
  viability, T/C: 66.6%
[11]
  viability, T/C: 46.6%
[12]
  viability, T/C: 37.1%
[13]
  viability, T/C: 118%
[14]
  viability, T/C: 122%
[15]
  viability, T/C: 124%
[16]
  viability, T/C: 63.2%
[17]
  viability, T/C: 54%
[18]
  viability, T/C: 44.8%
[19]
  viability, T/C: 95.3%
[20]
  viability, T/C: 112%
[21]
  viability, T/C: 99.6%
[22]
  viability, T/C: 68.5%
[23]
  viability, T/C: 46.2%
[24]
  viability, T/C: 40%
[25]
  viability, T/C: 103%
[26]
  viability, T/C: 107%
[27]
  viability, T/C: 104%
[28]
  viability, T/C: 60.6%
[29]
  viability, T/C: 53.1%
[30]
  viability, T/C: 46.2%
[31]
  viability, T/C: 96.9%
[32]
  viability, T/C: 105%
[33]
  viability, T/C: 99.9%
[34]
  viability, T/C: 66.8%
[35]
  viability, T/C: 53.1%
[36]
  viability, T/C: 40.8%
